Measurements reported in US20070116823A1, “HIGH-POTENCY SWEETENER FOR HYDRATION AND SWEETENED HYDRATION COMPOSITION” (THE COCA-COLA COMPANY, priority 2005, published 2007).

Experiments:
[1] = Rate of dissolution of rebaudioside A forms in H2O at 25° C.; format: physicochemical; conditions: in words
[2] = test system: panel of experts in the sensory evaluation of foods and beverages; assay: Sensory evaluation of sweetness linger by expert panel; format: in vivo; conditions: for Sweetness linger / Sweetness linger rating: scale 0=no to 5=high sweetness linger; for Sweetness Linger rating as defined by the protocol: reference points of the scale, REBA control sample 500 ppm
Experimental: Sensory evaluation of the samples prepared in Example Set G was carried out under the following protocol, similar to that described hereinabove. In this test protocol, none of the samples were swallowed. All samples were expectorated and the mouth was rinsed with water after the tasting. Immediately upon sensing maximal sweetness, the sample was expectorated, the mouth was rinsed with water and the rate of sweetness decay (“Sweetness Linger”) was measured, where attention was focused on the sweetness 3-4 min after the water rinse. After sample tasting was complete, a salty oyster cracker was chewed followed by a water rinse, and at least 5 minutes followed before tasting the next sample. The sweetness linger was rated by a panel of experts in the sensory evaluation of foods and beverages using the following scale: 0=no sweetness linger, 1=very slight sweetness linger, 2=slight sweetness linger, 3=moderate sweetness linger, 4=moderately high sweetness linger, 5=high sweetness linger.
The “Sweetness Linger” rating for sucrose observed by this protocol is defined as 0. The Sweetness Linger of a 500 ppm of REBA control sample is defined as 5. Experimental samples were tasted by the same protocol, always allowing sufficient time between samples to ensure re-equilibration of the sensory system. Re-tasting of control samples during the course of the experiment was allowed and encouraged.
The comparison taste test was performed between two controls and addition of sweet taste improving additive on the onset and/or sweetness linger.
Sweet taste improving compositions were combined with a REBA solution to determine their effect on sweetness linger. Screening of the initial sample, or further dilutions, allowed identification of concentrations which were just above-threshold, herein defined as “near-threshold concentrations.” The near-threshold additive concentrations, a 6- to 100-fold higher higher additive concentration (depending on the off-taste intensity), and a mid-level additive concentration (halfway between the near-threshold and higher additive concentration) were evaluated to determine the effect on sweetness linger of a REBA solution.
Formulations of a 500 ppm REBA in a phosphoric acid solution (75%) at a pH of 2.5 with phosphoric acid or a pH of 3.1 with citric acid and potassium citrate were prepared prior to the addition of the additives at the three levels of concentration.
\Sensory evaluation using the protocol described in Example Set C then was used to evaluate the sweetness linger of the REBA solutions.

Compound	Rate of dissolution in H2O at 25° C. [1]	Sweetness Linger rating as defined by the protocol [2]	further results
rebaudioside A [Form 4]	High		
rebaudioside A		5	Sweetness linger ([2]; Example Set G: 400 ppm REBA in citric acid/potassium citrate composition equivalent to diet lemon-lime beverage, with or without additive): 5; Sweetness linger ([2]; Example Set H: REBA in carbon-treated water, phosphoric acid (75%) to pH 2.4-2.5, with or without additive): 5
OC[C@H]1O[C@@](CO)(O[C@H]2O[C@H](CO)[C@@H](O)[C@H](O)[C@H]2O)[C@@H](O)[C@@H]1O [sucrose]		0	Sweetness linger rating ([2]; Set G control: 8 g of sugar in 100 ml of citrate buffer): 0; Sweetness linger rating ([2]; Set H control: 10 g of sugar in 100 ml carbon treated water, phosphoric acid to pH 2.4-2.5): 0

Continued, in another order:

Rate of dissolution in H2O at 25° C. [1]	Compound	Sweetness Linger rating as defined by the protocol [2]	further results
High	rebaudioside A [Form 3]		
Intermediate	rebaudioside A [Form 2]		
Very low	rebaudioside A [Form 1]		
